Experimental data: US10766864B2, “Morphinan derivatives for the treatment of neuropathic pain” (Nektar Therapeutics, priority 2015, dated 2020)
Like-named read-outs stand apart in the source and are kept apart here.

Key:
[1] = target: mu opioid receptor (MOR) (Homo sapiens (Human), UniProt P35372); experiment: Competitive radioligand binding at MOR ([3H] Naloxone)
Protocol: (§1) Receptor Binding at MOR and NMDA.
(§2) Affinities of various compounds were measured in vitro using competitive radioligand binding assays. Serial dilutions of test compounds were incubated with membranes prepared from CHO-K1 cells expressing the mu opioid receptor (MOR; for opioid receptor binding) or rat forebrain membranes (for NMDA receptor binding). 2 nM [^3H] Naloxone (MOR) or 0.2 nM [^3H] MK801 (NMDA) were used as the specific, competitive radioligands. 10 uM Naloxone (MOR), or 10 uM MK801 (NMDA) was used to determine non-specific binding. Bound radioactivity was measured using a scintillation counter & IC50 values for test compounds were determined by non-linear regression analysis using a one-site competition model (Graph Pad Prizm). Due to each test compound being solubilized in a buffered system for the assay, the results presented herein reflect the free base activity.

[2] = target: hMOR (Homo sapiens (Human), UniProt P35372); experiment: cAMP accumulation assay (inhibition of forskolin-stimulated cAMP) in CHO-K1 cells stably expressing hMOR; format: cell-based
Protocol: Mu opioid agonist activity for selected compounds was determined by the inhibition of forskolin-stimulated cAMP accumulation following MOR activation in CHO-K1 cells stably expressing the hMOR. […] IC50 values were calculated from […] analysis of the concentration-response curves using Graph Pad Prizm.

[3] = target: NMDA receptor; experiment: Competitive radioligand binding at NMDA receptor ([3H] MK801), rat forebrain membranes; conditions: 0.2 nM [3H] MK801, reflects free base activity
Protocol: as §1, §2

[4] = membranes from CHO-K1 cells expressing MOR, 2 nM [3H] Naloxone, reflects free base activity, read-out: MOR IC50
[5] = hMOR-expressing CHO-K1 cells, 10 μM forskolin, 60 minute incubation, read-out: MOR cAMP IC50

Row | SMILES | IC50 [1] [nM] | IC50 [2] [nM] | IC50 [3] [nM] | IC50 [1, 4] [nM] | IC50 [2, 5] [nM]
1 | COCCN1CC[C@]23CC(=O)CC[C@H]2[C@H]1Cc1ccc(O)cc13 [Compound 3, 3-hydroxy-17-(2-methoxyethyl)morphinan-6-one] | 0.1 to 10 | 0.1 to 10 | – | – | –
2 | COCCOc1ccc2c(c1)[C@]13CCN(C)[C@H](C2)[C@@H]1CCC(=O)C3 [Compound 7, 3-(2-methoxyethoxy)-17-methylmorphinan-6-one] | 100 to 1000 | 100 to 1000 | > 10000 | – | –
3 | COCCOCCN1CC[C@]23CCCC[C@H]2[C@H]1Cc1ccc(OC)cc13 [Compound 12, 3-methoxy-17-[2-(2-methoxyethoxy)ethyl]-morphinan] | – | – | > 10000 | > 1000 | > 1000
4 | COCCOCCN1CC[C@]23CCCC[C@H]2[C@H]1Cc1ccc(O)cc13 [Compound 15, 17-[2-(2-methoxyethoxy)ethyl]morphinan-3-ol] | 10 to 100 | 10 to 100 | > 10000 | – | –
5 | COCCOCCOCCN1CC[C@]23CCCC[C@H]2[C@H]1Cc1ccc(O)cc13 [Compound 16, 17-{2-{2-(2-methoxyethoxy)ethoxy]ethyl}-morphinan-3-ol] | – | – | – | > 1000 | > 1000
6 | COCCNC(=O)Oc1ccc2c(c1)[C@@]13CCCC[C@H]1[C@@H](C2)N(C)CC3 [Compound 18, 17-methylmorphinan-3-yl (2-methoxyethyl)carbamate] | 100 to 1000 | 100 to 1000 | 1000 to 10000 | – | –
7 | COCCOc1c(O)ccc2c1[C@@]13CCCC[C@H]1[C@@H](C2)N(C)CC3 [Compound 22, 4-(2-methoxyethoxy)-17-methylmorphinan-3-ol] | 10 to 100 | 10 to 100 | – | – | –
8 | COc1ccccc1Nc1ccc2c(c1)[C@@]13CCCC[C@H]1[C@@H](C2)N(C)CC3 [Compound 30, N-(2-methoxyphenyl)-17-methylmorphinan-3-amine] | 10 to 100 | 10 to 100 | 1000 to 10000 | – | –
9 | COCCOCCOCC(=O)Nc1ccc2c(c1)[C@@]13CCCC[C@H]1[C@@H](C2)N(C)CC3 [Compound 33, 2-[2-(2-methoxyethoxy)ethoxy]-N-(17-methylmorphinan-3-yl)acetamide] | 100 to 1000 | 100 to 1000 | > 10000 | – | –
10 | COCCOCCOc1ccc(Nc2ccc3c(c2)[C@@]24CCCC[C@H]2[C@@H](C3)N(C)CC4)cc1 [Compound 36, N-{4-[2-(2-methoxyethoxy)ethoxy]phenyl}-17-methylmorphinan-3-amine] | – | – | 1000 to 10000 | 10 to 100 | 10 to 100
11 | CN1CC[C@]23CCCC[C@H]2[C@H]1Cc1ccc(Nc2cccnc2)cc13 [Compound 43, 17-methyl-N-(pyridin-3-yl)morphinan-3-amine] | 0.1 to 10 | 0.1 to 10 | 0.1 to 100 | – | –
12 | CN1CC[C@]23CCCC[C@H]2[C@H]1Cc1ccc(-c2cn[nH]c2)cc13 [Compound 44, 17-methyl-3-(1H-pyrazol-4-yl)morphinan] | 10 to 100 | 10 to 100 | 100 to 1000 | – | –
13 | CN1CC[C@]23CCCC[C@H]2[C@H]1Cc1ccc(Nc2nccs2)cc13 [Compound 46, 17-methyl-N-(1,3-thiazol-2-yl)morphinan-3-amine] | 10 to 100 | 10 to 100 | 100 to 1000 | – | –
14 | COCCOCCOCCO[C@@H]1CC[C@H]2[C@H]3Cc4ccc(O)cc4[C@@]2(CCN3C)C1 [Compound 47, (6β)-6-{2-[2-(2-methoxyethoxy)ethoxy]ethoxy}-17-methylmorphinan-3-ol] | 0.1 to 10 | 0.1 to 10 | – | – | –
15 | COCCOCCOCCOCCOCCOCC(=O)Nc1nc2cc3c(cc2s1)C[C@@H]1[C@@H]2CCCC[C@]32CCN1C [Compound 69] | – | – | 1000 to 10000 | 100 to 1000 | 100 to 1000
16 | CN1CC[C@]23CCCC[C@H]2[C@H]1Cc1cc2cccnc2cc13 [Compound 89, (4aR,5R,12bR)-15-methyl-2,3,4,4a,5,6-hexahydro-1H-5,12b-(epiminoethano)naphtho[2,1-g]quinoline] | – | – | 1000 to 10000 | 100 to 1000 | –

Row | SMILES | IC50 [1] [nM] | IC50 [2] [nM] | IC50 [3] [nM] | IC50 [1, 4] [nM] | IC50 [2, 5] [nM]
17 | CN1CC[C@]23Cc4nc(N)sc4C[C@H]2[C@H]1Cc1ccc(O)cc13 [Compound 90, (6R,6aR,11aS)-9-amino-14-methyl-6,6a,7,11-tetrahydro-5H-6,11a-(epiminoethano)phenanthro[3,2-d]thiazol-2-ol] | 10 to 100 | – | > 10000 | – | –
18 | Oc1ccc2c(c1)[C@@]13CCCC[C@H]1[C@@H](C2)N(CC1CCO1)CC3 (stereo partly drawn) [Compound 91, 17-(oxetan-2-ylmethyl)morphinan-3-ol] | 0.1 to 10 | – | 1000 to 10000 | – | –
19 | COCCNC(=N)Nc1nc2cc3c(cc2s1)C[C@@H]1[C@@H]2CCCC[C@]32CCN1C [Compound 92, 1-(2-methoxyethyl)-3-((4aR,5R,11bR)-14-methyl-2,3,4,4a,5,6-hexahydro-1H-5,11b-(epiminoethano)phenanthro[3,2-d]thiazol-9-yl)guanidine] | – | – | > 10000 | 100 to 1000 | –
20 | COCCN1CC[C@]23CCCC[C@H]2[C@H]1Cc1ccc(Nc2ccncc2)cc13 [Compound 93, 17-(2-methoxyethyl)-N-(pyridin-4-yl)morphinan-3-amine] | 10 to 100 | – | 0.1 to 100 | – | –
21 | CN1CC[C@]23CCCC[C@H]2[C@H]1Cc1cc2ncc(N)nc2cc13 [Compound 94, (4aR,5R,12bR)-15-methyl-2,3,4,4a,5,6-hexahydro-1H-5,12b-(epiminoethano)naphtho[1,2-g]quinoxalin-10-amine] | – | – | 100 to 1000 | > 1000 | –
22 | CN1CC[C@]23CCCC[C@H]2[C@H]1Cc1cc2nnc(N)nc2cc13 [Compound 95, (4aR,5R,12bR)-15-methyl-2,3,4,4a,5,6-hexahydro-1H-5,12b-(epiminoethano)phenanthro[3,2-e][1,2,4]triazin-10-amine] | – | – | 1000 to 10000 | > 1000 | –
23 | COCCOCCN1CC[C@]23CCCC[C@H]2[C@H]1Cc1ccc(N)cc13 [Compound 96, (4bR,8aR,9R)-11-(2-(2-methoxyethoxy)ethyl)-6,7,8,8a,9,10-hexahydro-5H-9,4b-(epiminoethano)phenanthren-3-amine] | – | – | > 10000 | > 1000 | –
24 | COCCOCCN1CC[C@]23CCCC[C@H]2[C@H]1Cc1ccc(Nc2ccncc2)cc13 [Compound 98, 17-[2-(2-methoxyethoxy)ethyl]-N-(pyridin-4-yl)morphinan-3-amine] | 100 to 1000 | – | 100 to 1000 | – | –
25 | COCCOCCN1CC[C@]23CCCC[C@H]2[C@H]1Cc1ccc(Nc2ccnnc2)cc13 [Compound 99, (4bR,8aR,9R)-11-(2-(2-methoxyethoxy)ethyl)-N-(pyridazin-4-yl)-6,7,8,8a,9,10-hexahydro-5H-9,4b-(epiminoethano)phenanthren-3-amine] | – | – | 1000 to 10000 | > 1000 | –
26 | COCCOCCN1CC[C@]23CCCC[C@H]2[C@H]1Cc1ccc(-c2cn[nH]c2)cc13 [Compound 100, (4bR,8aR,9R)-11-(2-(2-methoxyethoxy)ethyl)-3-(1H-pyrazol-4-yl)-6,7,8,8a,9,10-hexahydro-5H-9,4b-(epiminoethano)phenanthrene] | – | – | 1000 to 10000 | > 1000 | –
27 | CN1CC[C@]23CCCC[C@H]2[C@H]1Cc1cc2ccc(N)nc2cc13 [Compound 101, (4aR,5R,12bR)-15-methyl-2,3,4,4a,5,6-hexahydro-1H-5,12b-(epiminoethano)naphtho[2,1-g]quinolin-10-amine] | – | – | 1000 to 10000 | 10 to 100 | –
28 | CN1CC[C@]23CCCC[C@H]2[C@H]1Cc1cc2ccc(=O)[nH]c2cc13 [Compound 102, (4aR,5R,12bR)-15-methyl-1,2,3,4,4a,5,6,11-octahydro-10H-5,12b-(epiminoethano)naphtho[2,1-g]quinolin-10-one] | – | – | > 10000 | > 1000 | –
29 | CN1CC[C@]23CCCC[C@H]2[C@H]1Cc1cc(C#N)c(N)cc13 [Compound 103, 3-amino-17-methylmorphinan-2-carbonitrile] | – | – | > 10000 | > 1000 | –
30 | COCCOCCN1CC[C@]23CCCC[C@H]2[C@H]1Cc1ccc(Nc2cncc(F)c2)cc13 [Compound 104, 17-[2-(2-methoxyethoxy)ethyl]-N-(5-fluoro-pyridin-3-yl)morphinan-3-amine] | 10 to 100 | – | > 10000 | – | –
31 | COCCOCCN1CC[C@]23CCCC[C@H]2[C@H]1Cc1ccc(Nc2nccs2)cc13 [Compound 105, N-((4bR,8aR,9R)-11-(2-(2-methoxyethoxy)ethyl)-6,7,8,8a,9,10-hexahydro-5H-9,4b-(epiminoethano)phenanthren-3-yl)thiazol-2-amine] | 100 to 1000 | – | > 10000 | – | –
32 | COCCOCCN1CC[C@]23CCCC[C@H]2[C@H]1Cc1ccc(-c2ccoc2)cc13 [Compound 106, (4bR,8aR,9R)-3-(furan-3-yl)-11-(2-(2-methoxyethoxy)ethyl)-6,7,8,8a,9,10-hexahydro-5H-9,4b-(epiminoethano)phenanthrene] | 100 to 1000 | – | > 10000 | – | –
